This note sets out measurements from patent US11136320B2, “Fused ring derivative used as FGFR4 inhibitor” (JACOBIO PHARMACEUTICALS CO., LTD., priority 2019, dated 2021).

By IC50 is commonly meant the concentration that gives 50% inhibition.

The target in experiment [1] is T1, FGFR4 kinase (Homo sapiens (Human), UniProt P22455).
Experiment [2] concerns Hepatoma cell Hep3B (high expression of FGFR4 and FGF19). The experiment in a line: Hepatoma cell proliferation inhibition experiment (MTS method). It is filed as cell-based. To be noted: for IC50: Homo sapiens, Hep3B, read-out: Hep3B(IC50 μM). An excerpt:
In this experiment, the MTS method was used to test the inhibitory effect of the compounds on the proliferation of Hepatoma cell Hep3B (high expression of FGFR4 and FGF19), and the half inhibitory concentration IC50 of the compounds to Hep3B was obtained. The Hep3B cell line was purchased from ATCC, and the complete culture medium of the Hep3B cell line was MEM+10% FBS+1% PS. MEM cell culture medium, fetal bovine serum, and trypsin were purchased from Gibco, cell culture flasks were purchased from Greiner, and disposable Cell Counting Plate and Taittinger Blue Solution were purchased from Bio-Rad.
(1) 100 μl Hepatoma cell Hep3B suspension was seeded in a 96-well cell culture plate, and the density of each well was 2.0×10^4 cells/ml.
(3) A mixture of MTS (3-(4,5-dimethylthiazol-2-yl)-5-(3-carboxymethoxyphenyl)-2-(4-sulfophenyl)-2H-tetrazolium)/PMS (phenazine methosulfate) was added into each well for coloration, and MTS/PMS in the mixture was at a ratio of 20:1 (ml:ml). 30 μl of the mixture was added into each well of the culture plate above mentioned in step (2), then the culture plate was incubated for 3 h in the incubator.
(5) The inhibition rate was calculated by the […];
(6) According to the inhibition rate of the different concentrations, the IC50 values of the compounds were obtained by curve fitting.

Experiment [3] has as its target T1, FGFR4 kinase. The experiment in a line: biochemical.

Where two headings read alike, the source gives them in different places.

T1 sequence (P22455 22-802): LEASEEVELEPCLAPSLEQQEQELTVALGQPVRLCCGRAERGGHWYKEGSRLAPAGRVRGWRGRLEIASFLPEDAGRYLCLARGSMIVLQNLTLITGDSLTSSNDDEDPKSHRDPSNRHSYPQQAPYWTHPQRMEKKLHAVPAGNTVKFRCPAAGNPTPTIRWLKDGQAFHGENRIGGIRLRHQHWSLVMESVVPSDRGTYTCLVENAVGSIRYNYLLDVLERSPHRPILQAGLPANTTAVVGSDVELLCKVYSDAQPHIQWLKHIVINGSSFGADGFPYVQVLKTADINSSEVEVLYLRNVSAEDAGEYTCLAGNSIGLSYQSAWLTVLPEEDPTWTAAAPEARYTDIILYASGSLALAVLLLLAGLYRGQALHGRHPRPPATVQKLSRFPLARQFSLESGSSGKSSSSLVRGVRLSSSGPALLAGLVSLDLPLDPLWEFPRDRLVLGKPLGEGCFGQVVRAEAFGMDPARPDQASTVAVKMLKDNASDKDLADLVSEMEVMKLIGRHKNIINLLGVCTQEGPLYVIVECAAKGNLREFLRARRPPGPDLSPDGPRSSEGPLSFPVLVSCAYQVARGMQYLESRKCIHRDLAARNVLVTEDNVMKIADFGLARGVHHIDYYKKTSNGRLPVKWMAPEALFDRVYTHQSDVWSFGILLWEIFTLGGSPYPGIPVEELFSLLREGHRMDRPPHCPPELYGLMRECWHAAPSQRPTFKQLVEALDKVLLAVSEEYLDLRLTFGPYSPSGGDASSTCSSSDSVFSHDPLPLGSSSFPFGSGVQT

With `CSC(C)(C)CNc1cc(NC(=O)N2CCCc3cc(CN4CCN(C)CC4=O)c(C=O)nc32)ncc1C#N` [Compound 6, N-(5-cyano-4-((2-methyl-2-(methylthio)propyl)amino)pyridin-2-yl)-7-formyl-6-((4-methyl-2-oxopiperazin-1-yl)methyl)-3,4-dihydro-1,8-naphthyridine-1 (2H)-carboxamide], the “inhibitory effect on FGFR4 compared with the reference compound” value on FGFR4 kinase [1] is “better inhibitory effect on FGFR4 than the reference compound”. For the same compound, the IC50 turned out to be 0.049 µM in experiment [2] (120 h) and 2.1 nM on FGFR4 kinase [3].
Regarding `CN1CCN(Cc2cc3c(nc2C=O)N(C(=O)Nc2cc(NCC[S+](C)[O-])c(C#N)cn2)CCC3)C(=O)C1` (centres unmarked) [Compound 27, N-(5-cyano-4-((2-(methyl-sulfinyl)ethyl)amino)pyridin-2-yl)-7-formyl-6-((4-methyl-2-oxopiperazin-1-yl)methyl)-3,4-dihydro-1,8-naphthyridine-1(2H)-carboxamide], the “inhibitory effect on FGFR4 compared with the reference compound” value on FGFR4 kinase [1] is recorded as “better inhibitory effect on FGFR4 than the reference compound”. Also, the IC50 in experiment [2] (120 h incubation) turned out to be 0.282 µM; against FGFR4 kinase [3], 2.4 nM.
In the case of `CN1CCN(Cc2cc3c(nc2C=O)N(C(=O)Nc2cc(NCCSC(F)(F)F)c(C#N)cn2)CCC3)C(=O)C1` [Compound 62, N-(5-cyano-4-((2-((trifluoromethyl)thio)ethyl)amino)pyridin-2-yl)-7-formyl-6-((4-methyl-2-oxopiperazin-1-yl)methyl)-3,4-dihydro-1,8-naphthyridine-1(2H)-carboxamide], the “inhibitory effect on FGFR4 compared with the reference compound” value against FGFR4 kinase [1] is “better inhibitory effect on FGFR4 than the reference compound”. Also, the figures for the IC50 (in experiment [2] (120 h incubation); against FGFR4 kinase [3]) were 0.054 µM and 1.7 nM, respectively.
For `CSCCCNc1cc(NC(=O)N2CCCc3cc(CN4CCN(C)CC4=O)c(C=O)nc32)ncc1C#N` [Compound 64, N-(5-cyano-4-((3-(methylthio)propyl)amino)pyridin-2-yl)-7-formyl-6-((4-methyl-2-oxopiperazin-1-yl)methyl)-3,4-dihydro-1,8-naphthyridine-1(2H)-carboxamide], the “inhibitory effect on FGFR4 compared with the reference compound” value against FGFR4 kinase [1] is given as “better inhibitory effect on FGFR4 than the reference compound”. Further, the “inhibitory effect on Hepatoma cell Hep3B compared with the reference compound” value in experiment [2] is on record as “better inhibitory effect”. The IC50 in experiment [2] (120 h incubation) turned out to be 0.018 µM; against FGFR4 kinase [3], 1.6 nM.
As to `C[C@H](C[S+](C)[O-])Nc1cc(NC(=O)N2CCCc3cc(CN4CCN(C)CC4=O)c(C=O)nc32)ncc1C#N` (stereo partly drawn) [Compound 69, N-(5-cyano-4-(((2R)-1-(methylsulfinyl)propan-2-yl)amino)pyridin-2-yl)-7-formyl-6-((4-methyl-2-oxopiperazin-1-yl)methyl)-3,4-dihydro-1,8-naphthyridine-1(2H)-carboxamide], the “inhibitory effect on FGFR4 compared with the reference compound” value against FGFR4 kinase [1] is on record as “better inhibitory effect on FGFR4 than the reference compound”. In addition, the IC50 in experiment [2] (120 h incubation) was 0.067 µM; against FGFR4 kinase [3] it was 2.1 nM.
In the case of `CN1CCN(Cc2cc3c(nc2C=O)N(C(=O)Nc2cc(NCCS(C)(=O)=O)c(C#N)cn2)CCC3)C(=O)C1.Cl` [Compound 72, N-(5-cyano-4-((2-(methyl-sulfonyl)ethyl)amino)pyridin-2-yl)-7-formyl-6-((4-methyl-2-oxopiperazin-1-yl)methyl)-3,4-dihydro-1,8-naphthyridine-1(2H)-carboxamide hydrochloride], the “inhibitory effect on FGFR4 compared with the reference compound” value against FGFR4 kinase [1] was “better inhibitory effect on FGFR4 than the reference compound”. Further, the IC50 in experiment [2] (120 h incubation) is 0.282 µM; against FGFR4 kinase [3] it was 2 nM.
For `CSCCNc1cc(NC(=O)N2CCCc3cc(CN(C)C(=O)C4CCOCC4)c(C=O)nc32)ncc1C#N.Cl` [Compound 73, N-(5-cyano-4-((2-(methyhthio)ethyl)amino)pyridin-2-yl)-7-formyl-6-((N-methyltetrahydro-2H-pyran-4-carboxamido)methyl)-3,4-dihydro-1,8-naphthyridine-1(2H)-carboxamide hydrochloride], in that order: “better inhibitory effect on FGFR4 than the reference compound”, 0.039 µM and 2.3 nM.
Regarding `CSCCNc1cc(NC(=O)N2CCCc3cc(CN(C)C(=O)[C@@H]4CCCO4)c(C=O)nc32)ncc1C#N.Cl` [Compound 75, (S)-N-(5-cyano-4-((2-(methylthio)ethyl)amino)pyridin-2-yl)-7-formyl-6-((N-methyltetrahydrofuran-2-carboxamido)methyl)-3,4-dihydro-1,8-naphthyridine-1(2H)-carboxamide hydrochloride], the “inhibitory effect on FGFR4 compared with the reference compound” value at FGFR4 kinase [1] is reported as “better inhibitory effect on FGFR4 than the reference compound”. For the same compound, the results for the IC50 (in experiment [2] (120 h incubation); against FGFR4 kinase [3]) were 0.028 µM and 1.8 nM, respectively.
Turning to `CSCCNc1cc(NC(=O)N2CCCc3cc(CN(C)C(=O)C4CCOC4)c(C=O)nc32)ncc1C#N.Cl` (centres unmarked) [Compound 76, N-(5-cyano-4-((2-(methylthio)ethyl)amino)pyridin-2-yl)-7-formyl-6-((N-methyltetrahydrofuran-3-carboxamido)methyl)-3,4-dihydro-1,8-naphthyridine-1(2H)-carboxamide hydrochloride], the “inhibitory effect on FGFR4 compared with the reference compound” value at FGFR4 kinase [1] is reported as “better inhibitory effect on FGFR4 than the reference compound”. In experiment [2], the “inhibitory effect on Hepatoma cell Hep3B compared with the reference compound” value is “better inhibitory effect”. Further, the IC50 in experiment [2] (120 h incubation) came out at 0.006 µM; on FGFR4 kinase [3] it was 2.1 nM.
Take `C[C@H](CS(C)(=O)=O)Nc1cc(NC(=O)N2CCCc3cc(CN4CCN(C)CC4=O)c(C=O)nc32)ncc1C#N` [Compound 83, N-(5-cyano-4-(((2R)-1-(methyl-sulfonyl)propan-2-yl)amino)pyridin-2-yl)-7-formyl-6-((4-methyl-2-oxopiperazin-1-yl)methyl)-3,4-dihydro-1,8-naphthyridine-1(2H)-carboxamide]: the “inhibitory effect on FGFR4 compared with the reference compound” value at FGFR4 kinase [1] is “better inhibitory effect on FGFR4 than the reference compound”. Besides, the figures for the IC50 (in experiment [2] (120 h incubation); against FGFR4 kinase [3]) were 0.068 µM and 2.1 nM, respectively.
